Test: Phase 1/2 first-in-human clinical study, safety evaluation (DLT, TEAE, SAE)
Conditions: for SAE Differentiation syndrome, CTCAE Grade: Related
[1] = cut-off, 40-300 mg BID, unrelated to study drug
[2] = patient US053A-0001, 80 mg BID Arm A, Not related, Recovered/Resolved
[3] = patient US154A-0002, 40 mg BID Arm B, Not related, Not recovered/Not resolved
[4] = patient US154A-0004, 100 mg BID Arm A, Not related, Recovered/Resolved
[5] = patient US185A-0001, 100 mg BID Arm A, Not related, Not recovered/Not resolved
[6] = patient US185A-0006, 120 mg BID Arm A, Not related, Fatal

Procedure: Arm A: Patients without azole antifungal treatment within 7 days (or 21 days for isavuconazole) of first dose of the present compound
Arm B: Patients receiving posaconazole, voriconazole, or fluconazole antifungal prophylaxis at enrollment
The safety of each dose level also was evaluated by the SRC, which was comprised of all investigators participating in the study and selected Sponsor study team members. The dose recommended by the BLRM method was treated as guidance and was integrated with a clinical assessment of toxicity information and review of other available data, including safety, PK, pharmacodynamic, and laboratory data.
When the Dose Limiting Toxicity (DLT) evaluation for each cohort was completed, the SRC determined a next dose level based on the DLT and other available data, including safety, PK, pharmacodynamic, and laboratory data with reference to the Bayesian Logistic Regression Model (BLRM) recommendation.
Dose escalation decisions were made after all patients in a dose level cohort have at least completed Cycle 1. All available data were presented along with the BLRM predictions for toxicity probabilities at the potential next dose levels. The SRC then determined the dose(s) for the next cohort(s).

C=C1C[C@@H]2CC[C@H]1[C@@H](C(=O)N1CCC3(CC1)CN(c1ncncc1Oc1ccc(F)cc1C(=O)N(C(C)C)C(C)C)C3)N2 [the present compound, 5-fluoro-2-[(4-{7-[(1S,3S,4R)-5-methylidene-2-azabicyclo[2.2.2]octane-3-carbonyl]-2,7-diazaspiro[3.5]nonan-2-yl}pyrimidin-5-yl)oxy]-N,N-di(propan-2-yl)benzamide]
Non-hematological TEAE regardless of causality: COVID-19 (N=57, Grade ≥3): 3 (5.3%) n (%) | Non-hematological TEAE regardless of causality: Constipation (N=57, Grade ≥3): 1 (1.8%) n (%) | Non-hematological TEAE regardless of causality: Cough (N=57, Grade ≥3): 0 (0.0%) n (%) | Non-hematological TEAE regardless of causality: Decreased appetite (N=57, Grade ≥3): 2 (3.5%) n (%) | Non-hematological TEAE regardless of causality: Diarrhoea (N=57, Grade ≥3): 0 (0.0%) n (%) | Non-hematological TEAE regardless of causality: Dizziness (N=57, Grade ≥3): 0 (0.0%) n (%) | Non-hematological TEAE regardless of causality: Dysgeusia (N=57, Grade ≥3): 0 (0.0%) n (%) | Non-hematological TEAE regardless of causality: Dyspnoea (N=57, Grade ≥3): 3 (5.3%) n (%) | Non-hematological TEAE regardless of causality: Electrocardiogram QT prolonged (N=57, Grade ≥3): 2 (3.5%) n (%) | Non-hematological TEAE regardless of causality: Epistaxis (N=57, Grade ≥3): 1 (1.8%) n (%) | Non-hematological TEAE regardless of causality: Fatigue (N=57, Grade ≥3): 1 (1.8%) n (%) | Non-hematological TEAE regardless of causality: Haemorrhage intracranial (N=57, Grade ≥3): 4 (7.0%) n (%) | Non-hematological TEAE regardless of causality: Headache (N=57, Grade ≥3): 0 (0.0%) n (%) | Non-hematological TEAE regardless of causality: Hypertension (N=57, Grade ≥3): 3 (5.3%) n (%) | Non-hematological TEAE regardless of causality: Hypotension (N=57, Grade ≥3): 2 (3.5%) n (%) | Non-hematological TEAE regardless of causality: Muscular weakness (N=57, Grade ≥3): 2 (3.5%) n (%) | Non-hematological TEAE regardless of causality: Myalgia (N=57, Grade ≥3): 0 (0.0%) n (%) | Non-hematological TEAE regardless of causality: Nausea (N=57, Grade ≥3): 4 (7.0%) n (%) | Non-hematological TEAE regardless of causality: Oedema peripheral (N=57, Grade ≥3): 0 (0.0%) n (%) | Non-hematological TEAE regardless of causality: Pain in extremity (N=57, Grade ≥3): 1 (1.8%) n (%) | Non-hematological TEAE regardless of causality: Pneumonia (N=57, Grade ≥3): 10 (17.5%) n (%) | Non-hematological TEAE regardless of causality: Pyrexia (N=57, Grade ≥3): 0 (0.0%) n (%) | Non-hematological TEAE regardless of causality: Sepsis (N=57, Grade ≥3): 10 (17.5%) n (%) | Non-hematological TEAE regardless of causality: Stomatitis (N=57, Grade ≥3): 0 (0.0%) n (%) | Non-hematological TEAE regardless of causality: Vomiting (N=57, Grade ≥3): 3 (5.3%) n (%) | Non-hematological laboratory change regardless of causality: ALT increase (N=57, Grade ≥3): 0 (0.0%) n (%) | Non-hematological laboratory change regardless of causality: AST increase (N=57, Grade ≥3): 1 (1.8%) n (%) | Non-hematological laboratory change regardless of causality: Hypertriglyceridemia (N=57, Grade ≥3): 4 (7.0%) n (%) | Non-hematological laboratory change regardless of causality: Hypocalcemia (N=57, Grade ≥3): 2 (3.5%) n (%) | Non-hematological laboratory change regardless of causality: Hypokalemia (N=57, Grade ≥3): 10 (17.2%) n (%) | Non-hematological laboratory change regardless of causality: Hypomagnesemia (N=57, Grade ≥3): 1 (1.8%) n (%) | Non-hematological laboratory change regardless of causality: Hyponatremia (N=57, Grade ≥3): 0 (0.0%) n (%) | Non-hematological laboratory change regardless of causality: Hypophosphatemia (N=57, Grade ≥3): 11 (19.3%) n (%) | Treatment related adverse event: Nausea (N=57, Grade ≥3): 1 (1.8%) n (%) | Treatment related adverse event: Vomiting (N=57, Grade ≥3): 1 (1.8%) n (%) | TEAE in ≥20% of patients regardless of causality: Fatigue (Total N=43, 40-200 mg BID): 10 (23.3%) n (%) | TEAE in ≥20% of patients regardless of causality: Hypokalaemia (Total N=43, 40-200 mg BID): 9 (20.9%) n (%) | TEAE in ≥20% of patients regardless of causality: Nausea (Total N=43, 40-200 mg BID): 15 (34.9%) n (%) | TEAE in ≥20% of patients regardless of causality: Vomiting (Total N=43, 40-200 mg BID): 10 (23.3%) n (%) | TEAE related to the present compound in ≥2 patients: Decreased appetite (Total N=43, 40-200 mg BID): 3 (7.0%) n (%) | TEAE related to the present compound in ≥2 patients: Nausea (Total N=43, 40-200 mg BID): 3 (7.0%) n (%) | TEAE related to the present compound in ≥2 patients: Vomiting (Total N=43, 40-200 mg BID): 4 (9.3%) n (%) | Possible differentiation syndrome (DS) (cut-off, 40-300 mg BID): 3 pts | TEAE assessed as related: nausea (cut-off, 40-300 mg BID): 12.1% | TEAE assessed as related: vomiting (cut-off, 40-300 mg BID): 15.5% | mortality from DS (cut-off, 40-300 mg BID): no mortality | Grade >3 TEAE: anemia [1]: 13.8% | Grade >3 TEAE: febrile neutropenia [1]: 15.5% | Grade >3 TEAE: platelet count decrease [1]: 12.1% | Grade >3 TEAE: pneumonia [1]: 17.2% | Grade >3 TEAE: sepsis [1]: 15.5% | DLT (cut-off, any dose level of 40-300 mg BID): No DLT | patients with related asymptomatic Grade 3 QT prolongation (cut-off, in the presence of other QT prolonging drugs): One | DLT (n=81, 40 mg BID to 300 mg BID): no DLT | Grade 3 nausea and vomiting (n=81, 40-300 mg BID): 1 patient | TEAE assessed as related: nausea (n=81, 40-300 mg BID): 12.3% | TEAE assessed as related: vomiting (n=81, 40-300 mg BID): 14.8% | TEAE regardless of relationship: decreased appetite (n=81, 40-300 mg BID): 21.0% | TEAE regardless of relationship: diarrhea (n=81, 40-300 mg BID): 21.0% | TEAE regardless of relationship: febrile neutropenia (n=81, 40-300 mg BID): 22.2% | TEAE regardless of relationship: hypokalemia (n=81, 40-300 mg BID): 21.0% | TEAE regardless of relationship: nausea (n=81, 40-300 mg BID): 37.0% | TEAE regardless of relationship: vomiting (n=81, 40-300 mg BID): 29.6% | grade ≥3 QTc prolongation related to the compound (n=81, 40-300 mg BID): no reports | SAE Sepsis, CTCAE Grade (patient JP002A-0001, 40 mg BID Arm A, Not related, Not recovered/Not resolved): 3 | SAE Malignant neoplasm progression, CTCAE Grade (patient JP002A-0003, 60 mg BID Arm B, Not related, Fatal): 5 | SAE Disease progression, CTCAE Grade (patient JP007A-0002, 60 mg BID Arm B, Not related, Not recovered/Not resolved): 3 | SAE Sepsis, CTCAE Grade (patient JP007A-0002, 60 mg BID Arm B, Not related, Recovered/Resolved): 4 | SAE Pneumonia, CTCAE Grade (patient JP028A-0001, 40 mg BID Arm B, Not related, Fatal): 5 | SAE Pneumonia, CTCAE Grade (patient JP028A-0001, 40 mg BID Arm B, Not related, Recovered/Resolved (one continuous event with the Grade 5)): 4 | SAE Haemorrhage intracranial, CTCAE Grade (patient US053A-0001, 80 mg BID Arm A, Not related, Fatal): 5 | SAE Atrial fibrillation, CTCAE Grade [2]: 3 | SAE Pneumonia, CTCAE Grade [2]: 3 | SAE Respiratory failure, CTCAE Grade [2]: 4 | SAE Differentiation syndrome, CTCAE Grade (patient US053A-0001, 80 mg BID Arm A, Drug interrupted, Recovered/Resolved): 4 | SAE Differentiation syndrome, CTCAE Grade (patient US053A-0001, 80 mg BID Arm A, action Not applicable, Recovered/Resolved): 3 | SAE Pneumonia, CTCAE Grade (patient US053A-0002, 40 mg BID Arm B, Not related, Recovered/Resolved): 3 | SAE Disease progression, CTCAE Grade (patient US154A-0001, 80 mg BID Arm A, Not related, Fatal): 5 | SAE Disease progression, CTCAE Grade (patient US154A-0002, 40 mg BID Arm B, Not related, Fatal): 5 | SAE Bone pain, CTCAE Grade [3]: 3 | SAE Malaise, CTCAE Grade [3]: 3 | SAE Pyrexia, CTCAE Grade [4]: 1 | SAE Respiratory failure, CTCAE Grade [4]: 2 | SAE Leukocytosis, CTCAE Grade (patient US154A-0004, 100 mg BID Arm A, Not related, Recovering/Resolving): 4 | SAE Leukocytosis, CTCAE Grade (patient US158A-0002, 120 mg BID Arm A, Not related, Recovered/Resolved): 1 | SAE Acute myeloid leukaemia, CTCAE Grade (patient US185A-0001, 100 mg BID Arm A, Not related, Fatal): 5 | SAE Cerebrovascular accident, CTCAE Grade [5]: 4 | SAE Haemorrhage intracranial, CTCAE Grade [5]: 2 | SAE Electrocardiogram QT prolonged, CTCAE Grade (patient US185A-0001, 100 mg BID Arm A, Not related, Recovered/Resolved, hypomagnesaemia at the time): 3 | SAE Febrile neutropenia, CTCAE Grade (patient US185A-0002, 40 mg BID Arm B, Not related, Recovered/Resolved): 3 | SAE Sepsis, CTCAE Grade (patient US185A-0002, 40 mg BID Arm B, Not related, Recovering/Resolving): 3 | SAE Lung infection (pneumonia), CTCAE Grade [6]: 5 | SAE Multiple organ dys function syndrome, CTCAE Grade [6]: 5 | SAE Sepsis, CTCAE Grade [6]: 5 | SAE Pneumonia fungal, CTCAE Grade (patient US210A-0001, 80 mg BID Arm A, Not related, Fatal): 5 | SAE Rectal haemorrhage, CTCAE Grade (patient US210A-0001, 80 mg BID Arm A, Not related, Recovered/Resolved): 4 | SAE Cellulitis, CTCAE Grade (patient US210A-0002, 120 mg BID Arm A, Not related, Recovered/Resolved): 3 | safety profile between Arm A and Arm B (without vs with azole antifungals): not different
